Results from US10847829B2, “Quinone and hydroquinone based flow battery” (President and Fellows of Harvard College, priority 2013, dated 2020).

Key:
Solubility = type: physicochemical; conditions: pH 0
Cyclic voltammetry (CV) = type: physicochemical; conditions: about 1 mM in 1M sulfuric acid in water
Procedure: [drawing 47] (concentration about 1 mM in 1M sulfuric acid in water) was studied by cyclic voltammetry (CV).
[drawing 48] (concentration about 1 mM in 1M sulfuric acid in water) was studied by CV.
[drawing 50] (concentration about 1 mM in 1M sulfuric acid in water) was studied by CV.
[drawing 53] (concentration about 1 mM in 1M sulfuric acid in water) was studied by CV.

| Molecule | solubility (Solubility) [M] | redox peaks location, higher-potential set (Cyclic voltammetry (CV)) [V] | redox peaks location, lower-potential set (Cyclic voltammetry (CV)) [V] |
| --- | --- | --- | --- |
| 9,10-anthraquinone-2,7-disulfonate [Scheme 1 ID 1] | ~1 | – | – |
| O=C1c2ccccc2C(=O)c2c(O)c(S(=O)(=O)O)cc(O)c21 [Example 2, 1,4-dihydroxy-9,10-anthraquinone-3-sulfonic acid] | – | ~1.08 | ~0.11 |
| O=C1c2ccccc2C(=O)c2c1cc(S(=O)(=O)O)c(O)c2O [Example 3, 1,2-dihydroxy-9,10-anthraquinone-3-sulfonic acid] | – | ~1.3 | ~0.10 |
| O=C1c2ccccc2C(=O)c2c(O)c(SCCS(=O)(=O)O)c(SCCS(=O)(=O)O)c(O)c21 [Example 6, 2,2′-((1,4-dihydroxy-9,10-dioxo-9,10-dihydroanthracene-2,3-diyl)bis(sulfanediyl))bis(ethane-1-sulfonic acid)] | – | ~1.08 | ~0.11 |
